According to patent US20030013643A1, “Prevention and treatment of streptococcal and staphylococcal infection” (priority 2000, published 2003):

How the values were obtained:
[1] = test system: wild-type GAS, strain 950771; assay: GAS translocation through polarized human keratinocyte monolayers; format: cell-based, Streptococcus pyogenes; conditions: pre-treated 30 minutes with 2 mg/ml, compared to untreated monolayers
Experimental: Human keratinocytes were cultured on 3.0 μm filters to allow polarization and establishment of functional intercellular tight junctions. Cells were infected as described previously with wild-type GAS, strain 950771. To assess the ability of exogenously added HA to inhibit the translocation of GAS through the keratinocyte monolayer, cells were pre-treated for 30 minutes with either 2 mg/ml of hyaluronic acid (HA) or another acidic polysaccharide, alginate (AL), at the same concentration. Aliquots of media from the lower chamber of infected keratinocyte monolayers were cultured on blood agar plates at 1 and 2 hours after inoculation with bacteria to assess the number of translocating bacteria. […] In contrast only 20% and 25% of the wild-type bacteria were blocked by AL at 1 and 2 hours, respectively.
GAS strains were 950771, an M-type 3 strain originally isolated from a child with necrotizing fasciitis, and 188, an isogenic acapsular mutant derived from 950771 (Ashbaugh, C. D., et al., (1998) J. Clin. Invest. 102, 550-560). Bacteria were cultured in Todd Hewitt broth (Difco, Sparks, Md.) to early exponential phase. For preparation of polarized keratinocyte monolayers, human squamous cell carcinoma cell line, SCC13, derived from cheek epidermis (Cline, P. R. & Rice, R. H. (1983) Cancer Res. 43, 3203-3207) was cultured to confluence in serum-free keratinocyte medium (Gibco BRL, Rockville, Md.) supplemented with 50 μg/ml bovine pituitary extract, 0.1 ng/ml epidermal growth factor and 0.3 mM calcium chloride (c-SFM). Certain experiments were performed also using cell monolayers prepared from OKP7 primary human keratinocytes (Crowe et al. (1991) Differentiation 48, 199-208). Keratinocytes were seeded at 5×10^5 cells per well onto polycarbonate Transwell membrane supports (12-well plates, 3.0 μm pore size; Costar, Corning, N.Y.) and cultured for 6-10 days at 37° C. with 5% CO2 in c-SFM, with daily medium changes. Once confluent, the integrity of the monolayer was assessed routinely by measuring permeability to sodium fluorescein (Tchao, R. (1988) Alternative Methods in Toxicology (eds. Goldberg, A. M.) 271-283 (Ann Liebert, N.Y.) and, in some experiments, by measuring transepithelial electrical resistance (McNamara, B. P., et al. (2001) J Clin Invest 107, 621-9).
Keratinocyte monolayers on Transwells were inoculated with GAS at a multiplicity of infection of 10 per keratinocyte. Monolayers were incubated at 37° C. with 5% CO2. The keratinocyte medium in the upper chamber was replaced two hours after adding GAS, and the Transwell inserts containing the keratinocytes were moved to new wells containing fresh medium every 2 hours to prevent overgrowth of translocated bacteria. Translocation was assessed by quantitative cultures of medium from the lower chamber at 2 hour intervals.
As a model of the movement of GAS from the pharyngeal mucosa or skin surface into underlying tissue, GAS translocation was studied in vitro through keratinocyte monolayers. Two hours after inoculation onto the surface of a confluent keratinocyte monolayer, wild-type GAS was detected in the culture medium below the membrane support, indicating migration of the organisms through the monolayer. At each of several intervals after inoculation, approximately 20 to 100 times as many GAS were recovered below monolayers inoculated with wild-type GAS compared to those inoculated with the acapsular mutant strain.(Figure 12a). […] Compared to wild-type GAS strain 950771, the efficiency of translocation was similar for wild-type GAS strains 87-282, a highly encapsulated M-type 18 strain, and for DLS003, a poorly encapsulated M-type 3 strain. Translocation of wild-type GAS was reduced by 78% at 1 hour in experiments in which the keratinocyte monolayers were pretreated with monoclonal antibody IM7.8.1 to block interaction of the GAS capsule with CD44 . […]

GAS = GAS translocation through abraded human skin equivalent; format: cell-based, Streptococcus pyogenes; conditions: pre-treated at 2 mg/ml for 1 hour; 4 hour infection period
Experimental: To examine GAS translocation in a model system similar to normal human skin, we utilized pseudo-organ cultures of human skin equivalent. This material is made by constructing a “dermis” that consists of human fibroblasts cultured in a collagen matrix; human foreskin keratinocytes are seeded on top of the dermal equivalent and cultured under conditions that promote differentiation into a stratified squamous epithelium with a stratum comeum. The histology of the human skin equivalent is very similar to that of normal human skin except for the absence of non-keratinocyte elements such as blood vessels and hematopoietic cells, nerves, and hair follicles. Since intact human skin is highly resistant to GAS infection, we simulated minor trauma to the superficial epidermis by abrading the surface of the skin equivalent with a cytology brush to introduce breaks in the stratum corneum. GAS were inoculated onto the surface of abraded skin equivalent that had either been pre-treated with nothing, HA, or AL at 2 mg/ml for 1 hour and translocation through the tissue was monitored by culture of GAS from the basal surface of the skin equivalent at intervals. As depicted in FIG. 10, HA inhibited translocation GAS by 91% (solid bars). In comparison the AL control prevented only 14% of bacteria from translocating through the skin equivalent during the 4 hour infection period. […]

## hyaluronic acid
[1]; 1 hour after inoculation
  blocking of translocating GAS: 100%
[1]; 2 hours after inoculation
  blocking of translocating GAS: 100%
GAS
  inhibition of translocation of GAS through skin equivalent: 91%
